Reference: ChEMBL document CHEMBL4316584, “All that glitters is not gold: Panning cytotoxic natural products and derivatives with a fused tricyclic backbone by the estimation of their leadlikeness for cancer treatment” (Eur J Med Chem, 2019)
pIC50: −log10 of the molar value.

How the values were obtained:
Type in all cases: functional, cell-based
[1] = tested on: HepG2; assay: Cytotoxicity against human HepG2 cells after 48 hrs by MTT assay; conditions: HepG2, 48 h
[2] = tested on: A549; assay: Cytotoxicity against human A549 cells after 48 hrs by MTT assay; conditions: Homo sapiens, A549, 48 h
[3] = tested on: MCF7; assay: Cytotoxicity against human MCF7 cells after 48 hrs by MTT assay; conditions: MCF7, 48 h
[4] = tested on: HCT-116; assay: Cytotoxicity against human HCT116 cells after 48 hrs by MTT assay; conditions: HCT-116, 48 h

| Structure (SMILES) | pIC50 [2] | pIC50 [3] | also measured |
| --- | --- | --- | --- |
| CCN(CC)CCOc1cc(O)c2c(c1)C(=O)c1cc(C)cc(O)c1C2=O | – | – | pIC50 [1]: 5.25 |
| CC(C)(O)c1ccc2c(c1)C(=O)C[C@H]1C(C)(C)CCC[C@]21C | 4.85 | – | – |
| Cc1cnc2c(c1)C(=O)C1N=CC=C(/C=C/C#N)C1C2=O (centres undefined) | 5.10 | – | – |
| Nc1ccc(C(=O)/C=C/c2cc3c([nH]c4ccccc43)c(-c3ccc(C(F)(F)F)cc3)n2)cc1 | 5.53 | – | – |
| CC(=O)N1N=C(c2ccco2)CC1c1cc2c([nH]c3ccccc32)c(-c2cccc(Cl)c2)n1 (centres undefined) | 4.81 | – | – |
| COC(=O)c1ccc2c(=O)c3c(OC)cc(CCO)cc3oc2c1O | 5.32 | – | – |
| C=C[C@@]1(C)C=C2[C@@H](O[C@@H]3O[C@H](C)[C@H](O)[C@H](O)[C@H]3O)C[C@@H]3C(C)(C)[C@H](O[C@@H]4O[C@@H](C)[C@H](O)[C@@H](O)[C@H]4O[C@H]4O[C@H](C)[C@H](O)[C@H](O)[C@H]4O)CC[C@@]3(C)[C@@H]2CC1 | – | 5.33 | – |
| CNC1=CC(=O)c2c(O)c3c(c(O)c2C1=O)C[C@](C)(O)[C@H](O)[C@H]3O | – | 5.45 | – |
| CCCCSC1=C(SCCCC)C(=O)c2c(O)c3c(c(O)c2C1=O)C[C@](C)(O)[C@H](O)[C@H]3O | – | 5.61 | – |
| Cc1cnc2c(c1)C(=O)C1N=CC=CC1C2=O (centres undefined) | 5.43 | – | – |
| COC(=O)c1ccc2c(=O)c3c(O)cc(CCO)cc3oc2c1O | – | 5.57 | – |
| CC(C)=CCc1c(O)cc2oc3ccccc3c(=O)c2c1O | – | – | pIC50 [1]: 5.01 |
| O=C(NCCN1CCCCC1)c1cc(O)c2c(c1)C(=O)c1cc(O)cc(O)c1C2=O | – | – | pIC50 [1]: 4.72 |
| COc1cc(-c2nc(/C=C/C(=O)c3ccco3)cc3c2[nH]c2ccccc23)cc(OC)c1OC | 5.42 | – | – |
| C[C@]1(O)Cc2c(O)c3c(c(O)c2[C@H](O)[C@H]1O)C(=O)C(SCCO)=C(SCCO)C3=O | – | 4.84 | – |
| CCn1c2ccccc2c2cc(C3=NCCc4c3[nH]c3ccccc43)ccc21 | – | – | pIC50 [1]: 5.64 |
| Nc1ccc(C(=O)/C=C/c2cc3c([nH]c4ccccc43)c(-c3ccc(F)c(F)c3)n2)cc1 | – | 4.98 | – |
| CC1CCN(CC2CCc3c(n(C)c4ccccc34)C2=O)CC1 (centres undefined) | 6.15 | – | – |
| COc1cc(-c2nc(C3CC(c4ccco4)=NN3C(C)=O)cc3c2[nH]c2ccccc23)cc(OC)c1OC (centres undefined) | 5.49 | – | – |
| COc1ccc2oc3ccccc3c(=O)c2c1O | – | 4.78 | – |
| O=C(/C=C/c1cc2c([nH]c3ccccc32)c(-c2ccc(F)c(F)c2)n1)c1ccco1 | 5.02 | – | – |
| CCOP(=O)(OCC)C(C)(NC(=O)c1cc(O)c2c(c1)C(=O)c1cccc(O)c1C2=O)c1ccccc1 (centres undefined) | – | – | pIC50 [1]: 4.74 |

| Structure (SMILES) | pIC50 [2] | pIC50 [3] | also measured |
| --- | --- | --- | --- |
| COC(=O)c1cccc2oc3cc(CCO)cc(O)c3c(=O)c12 | – | 5.34 | – |
| CC1=CC2C(=O)c3nccc(Cl)c3C(=O)C2N=C1 (centres undefined) | 4.86 | – | – |
| CN(Cc1ccccc1)CC1CCc2c(n(C)c3ccccc23)C1=O (centres undefined) | 4.85 | – | – |
| CCSC1=C(SCC)C(=O)c2c(O)c3c(c(O)c2C1=O)C[C@@H](O)[C@@](C)(O)C3 | – | – | pIC50 [1]: 4.94 |
| C[C@]1(O)Cc2c(O)c3c(c(O)c2[C@H](O)[C@H]1O)C(=O)C=C(N1CCCCC1)C3=O | – | 5.50 | – |
| Cc1cc(O)c2c(c1)C(=O)c1cc(OCCN(C)C)cc(O)c1C2=O | – | 5.35 | – |
| COc1cc(C2=NN(C(C)=O)C(c3cc4c([nH]c5ccccc54)c(-c4ccc(F)c(F)c4)n3)C2)cc(OC)c1OC (centres undefined) | 4.96 | – | – |
| COc1ccc(CNC2=CC(=O)c3c(O)c4c(c(O)c3C2=O)C[C@](C)(O)[C@H](O)[C@H]4O)cc1 | – | 5.04 | – |
| COc1ccnc2c1C(=O)C1N=CC=C(c3ccccc3)C1C2=O (centres undefined) | 4.98 | – | – |
| CCOP(=O)(OCC)C(C)(CCc1ccccc1)NC(=O)c1cc(O)c2c(c1)C(=O)c1cccc(O)c1C2=O (centres undefined) | – | – | pIC50 [1]: 5.05 |
| C[C@]1(O)Cc2c(O)c3c(c(O)c2C[C@H]1O)C(=O)C=C(N1CCC(c2ccccc2)CC1)C3=O | – | – | pIC50 [1]: 4.93 |
| O=C(/C=C/c1cc2c([nH]c3ccccc32)c(-c2cccc(Cl)c2)n1)c1ccco1 | 4.73 | – | – |
| O=c1c2ccc(O)cc2oc2cccc(O)c12 | – | – | pIC50 [1]: 4.74 |
| CC(CO)c1cc2c(c(O)c1O)C[C@@]1(O)CCCC(C)(C)[C@@H]1CC2 (some centres undefined) | – | 4.80 | – |
| CC(CO)c1cc(O)c2c(c1)[C@@H](O)C[C@H]1C(C)(C)CCC[C@]1(O)C2 (some centres undefined) | – | 4.80 | – |
| CC(CO)c1cc(O)c2c(c1)CC[C@H]1C(C)(C)CCC[C@]1(O)C2 (some centres undefined) | – | 4.97 | – |
| COc1cc(O)c2c(c1)C(=O)C1=C(C[C@@H](O)[C@@](C)(O)[C@@H]1O)C2=O [ALTERSOLANOL C] | – | – | pIC50 [4]: 5.52 |
| COC1=CC(=O)c2c(O)c3c(c(O)c2C1=O)C[C@](C)(O)[C@H](O)[C@H]3O [BOSTRYCIN] | – | – | pIC50 [4]: 5.32 |
| CC(=O)O[C@@H]1[C@H](C)CC(O)=C2C(=O)c3c(ccc(-c4ccc5c(c4O)C(=O)C4=C(O)C[C@@H](C)[C@@H](OC(C)=O)[C@@]4(CO)O5)c3O)O[C@@]21CO [DICERANDROL A] | – | – | pIC50 [4]: 5.58 |
| CC(=O)OC[C@]12Oc3ccc(-c4ccc5c(c4O)C(=O)C4=C(O)C[C@@H](C)[C@@H](OC(C)=O)[C@@]4(CO)O5)c(O)c3C(=O)C1=C(O)C[C@@H](C)[C@H]2OC(C)=O [DICERANDROL B] | – | – | pIC50 [4]: 5.40 |
| O=C1c2c(O)ccc(O)c2C(=O)c2c(NCCNCCO)ccc(NCCNCCO)c21 [MITOXANTRONE] | 5.14 | – | – |
| COC1=CC(=O)c2c(cc3c(c2O)C[C@@H](O)[C@@](C)(O)C3)C1=O [NIGROSPORIN B] | – | – | pIC50 [4]: 5.33 |
